Results published in patent US7842695B2, “Substituted pyrazole compounds” (Merck Patent GmbH, priority 2003, dated 2010).

How the values were obtained:
[1] = target: 5-HT2A receptors (UniProt P14842); experiment: in-vitro affinity to 5-HT2A receptors, [3H]ketanserine displacement (Example A1); assay type: binding
Excerpt: The 5-HT2A receptors are exposed both to [^3H]ketanserine (a substance known for its affinity to the receptor) and also to the test compound. The decrease in the affinity of [^3H]ketanserine to the receptor is an indication of the affinity of the test substance to the 5-HT2A receptor.

[2] = target: T1, 5 HT2C receptor (Homo sapiens, UniProt P28335); experiment: affinity to the 5 HT2C receptor; assay type: binding
T1 sequence (P28335 33-458): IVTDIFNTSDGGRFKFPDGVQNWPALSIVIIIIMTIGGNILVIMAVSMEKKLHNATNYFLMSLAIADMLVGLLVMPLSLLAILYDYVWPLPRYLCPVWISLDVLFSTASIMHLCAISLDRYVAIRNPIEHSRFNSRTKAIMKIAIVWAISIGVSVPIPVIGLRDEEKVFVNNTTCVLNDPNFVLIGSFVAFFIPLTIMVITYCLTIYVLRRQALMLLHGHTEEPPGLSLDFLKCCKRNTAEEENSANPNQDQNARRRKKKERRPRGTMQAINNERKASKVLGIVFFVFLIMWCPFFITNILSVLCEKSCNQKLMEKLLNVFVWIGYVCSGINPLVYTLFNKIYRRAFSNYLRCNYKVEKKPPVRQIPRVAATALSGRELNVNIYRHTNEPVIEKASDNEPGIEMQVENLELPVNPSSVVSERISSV

CN1CCN(Cc2cnn(-c3ccc(-c4ccsc4)cc3)c2-c2ccccc2)CC1 [Example 610, 1-Methyl-4-[5-phenyl-1-(4-thiophen-3-ylphenyl)-1H-pyrazol-4-ylmethyl]piperazine]
IC50 [1]: 0.031 µM | IC50 [2]: 0.49 µM

CCN1CCN(Cc2cnn(-c3ccc(-c4ccc(F)cc4)cc3)c2-c2ccco2)CC1 [Example 539, 1-Ethyl-4-[1-(4′-fluorobiphenyl-4-yl)-5-furan-2-yl-1H-pyrazol-4-ylmethyl]piperazine]
IC50 [1]: 0.0036 µM | IC50 [2]: 0.31 µM

CN1CCN(Cc2cnn(-c3ccc(-c4ccncc4)cc3)c2-c2ccccc2F)CC1 [Example 661, 1-[5-(2-Fluorophenyl)-1-(4-pyridin-4-ylphenyl)-1H-pyrazol-4-ylmethyl]-4-methylpiperazine]
IC50 [1]: 0.077 µM | IC50 [2]: 1 µM

COc1ccc(-c2ccc(-n3ncc(CN4CCNCC4)c3-c3ccco3)cc2)cc1 [Example 530, 1-[5-Furan-2-yl-1-(4′-methoxybiphenyl-4-yl)-1H-pyrazol-4-ylmethyl]piperazine]
IC50 [1]: 0.0011 µM | IC50 [2]: 0.2 µM

CCN(CC)Cc1cnn(-c2ccc(-c3ccc4c(c3)OCO4)cc2)c1-c1ccco1 [Example 602, [1-(4-Benzo-1,3-dioxol-5-ylphenyl)-5-furan-2-yl-1H-pyrazol-4-ylmethyl]diethylamine]
IC50 [1]: 0.026 µM | IC50 [2]: 0.61 µM

CN(C)Cc1cnn(-c2ccc(-c3ccc4c(c3)OCO4)cc2)c1-c1ccco1 [Example 531, [1-(4-Benzo-1,3-dioxol-5-ylphenyl)-5-furan-2-yl-1H-pyrazol-4-ylmethyl]dimethylamine]
IC50 [1]: 0.0014 µM | IC50 [2]: 0.074 µM
